# Measurements taken from publication PMC5762309 (Oncotarget, 2017).
# Where two headings read alike, the source gives them in different places.
# Assays:
# KIT wt = KIT wt (Homo sapiens, UniProt P10721); assay: KIT auto-phosphorylation in transformed BaF3 cells; assay type: cell-based; details: 2h
# BMPR2 = target: T1, BMPR2 (Homo sapiens, UniProt Q13873); assay: KINOMEScan; assay type: binding; parameters: dose or concentration left out as unconfirmed
# T1 construct: purchased DiscoverX KINOMEscan
# CAMK1B = target: T2, CAMK1B (Homo sapiens, UniProt Q6P2M8); assay: KINOMEScan; assay type: binding; parameters: dose or concentration left out as unconfirmed
# T2 construct: purchased DiscoverX KINOMEscan
# CDK11 = target: T3, CDK11 (Homo sapiens, UniProt Q9BWU1); assay: KINOMEScan; assay type: binding; parameters: dose or concentration left out as unconfirmed
# T3 construct: purchased DiscoverX KINOMEscan
# T3 sequence (Q9BWU1 whole entry): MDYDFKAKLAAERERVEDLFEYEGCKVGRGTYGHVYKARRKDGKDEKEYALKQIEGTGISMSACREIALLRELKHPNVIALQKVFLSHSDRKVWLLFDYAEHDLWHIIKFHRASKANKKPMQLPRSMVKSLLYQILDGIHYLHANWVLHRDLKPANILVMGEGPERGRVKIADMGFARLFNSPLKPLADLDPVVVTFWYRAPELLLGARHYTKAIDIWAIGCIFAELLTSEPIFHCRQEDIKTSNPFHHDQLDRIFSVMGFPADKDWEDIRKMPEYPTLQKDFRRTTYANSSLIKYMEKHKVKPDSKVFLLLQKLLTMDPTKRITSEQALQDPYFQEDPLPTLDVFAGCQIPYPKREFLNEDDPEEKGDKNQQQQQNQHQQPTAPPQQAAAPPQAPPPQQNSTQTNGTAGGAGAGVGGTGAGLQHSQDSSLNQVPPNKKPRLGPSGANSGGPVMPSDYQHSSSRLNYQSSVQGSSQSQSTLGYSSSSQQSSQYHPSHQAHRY
# CDK8 = target: T4, CDK8 (Homo sapiens, UniProt P49336); assay: KINOMEScan; assay type: binding; parameters: dose or concentration left out as unconfirmed
# T4 construct: purchased DiscoverX KINOMEscan
# CHEK1 = target: T5, CHEK1 (Homo sapiens, UniProt O14757); assay: KINOMEScan; assay type: binding; parameters: dose or concentration left out as unconfirmed
# T5 construct: purchased DiscoverX KINOMEscan
# CSK = target: T6, CSK (Homo sapiens, UniProt P41240); assay: KINOMEScan; assay type: binding; parameters: dose or concentration left out as unconfirmed
# T6 construct: purchased DiscoverX KINOMEscan
# T6 sequence (P41240 whole entry): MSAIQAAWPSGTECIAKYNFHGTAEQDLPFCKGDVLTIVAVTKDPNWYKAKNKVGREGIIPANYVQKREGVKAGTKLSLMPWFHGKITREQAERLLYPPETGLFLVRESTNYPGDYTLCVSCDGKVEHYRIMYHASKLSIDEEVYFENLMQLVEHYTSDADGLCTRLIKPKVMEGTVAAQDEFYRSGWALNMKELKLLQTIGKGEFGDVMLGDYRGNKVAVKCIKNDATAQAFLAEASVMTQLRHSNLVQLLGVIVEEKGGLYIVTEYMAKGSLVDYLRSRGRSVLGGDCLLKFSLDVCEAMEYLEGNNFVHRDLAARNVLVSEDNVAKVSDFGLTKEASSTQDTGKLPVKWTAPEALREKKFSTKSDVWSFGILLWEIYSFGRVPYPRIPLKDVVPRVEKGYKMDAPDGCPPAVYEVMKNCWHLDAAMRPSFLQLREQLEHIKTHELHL
# CSNK1G2 = target: T7, CSNK1G2 (Homo sapiens, UniProt P78368); assay: KINOMEScan; assay type: binding; parameters: dose or concentration left out as unconfirmed
# T7 construct: purchased DiscoverX KINOMEscan
# T7 sequence (P78368 whole entry): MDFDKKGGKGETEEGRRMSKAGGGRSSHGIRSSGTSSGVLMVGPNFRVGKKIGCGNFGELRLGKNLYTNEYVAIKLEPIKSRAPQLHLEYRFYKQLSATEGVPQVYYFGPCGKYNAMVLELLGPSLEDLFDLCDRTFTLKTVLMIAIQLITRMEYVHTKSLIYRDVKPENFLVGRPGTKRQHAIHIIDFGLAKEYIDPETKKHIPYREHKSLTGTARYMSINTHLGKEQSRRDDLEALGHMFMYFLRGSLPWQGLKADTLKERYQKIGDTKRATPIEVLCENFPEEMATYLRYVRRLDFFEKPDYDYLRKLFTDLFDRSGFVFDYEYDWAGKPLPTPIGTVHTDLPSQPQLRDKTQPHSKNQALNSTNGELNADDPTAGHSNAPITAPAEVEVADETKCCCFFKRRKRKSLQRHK
# DCAMKL1 = target: T8, DCAMKL1 (Homo sapiens, UniProt O15075); assay: KINOMEScan; assay type: binding; parameters: dose or concentration left out as unconfirmed
# T8 construct: purchased DiscoverX KINOMEscan
# T8 sequence (O15075 whole entry): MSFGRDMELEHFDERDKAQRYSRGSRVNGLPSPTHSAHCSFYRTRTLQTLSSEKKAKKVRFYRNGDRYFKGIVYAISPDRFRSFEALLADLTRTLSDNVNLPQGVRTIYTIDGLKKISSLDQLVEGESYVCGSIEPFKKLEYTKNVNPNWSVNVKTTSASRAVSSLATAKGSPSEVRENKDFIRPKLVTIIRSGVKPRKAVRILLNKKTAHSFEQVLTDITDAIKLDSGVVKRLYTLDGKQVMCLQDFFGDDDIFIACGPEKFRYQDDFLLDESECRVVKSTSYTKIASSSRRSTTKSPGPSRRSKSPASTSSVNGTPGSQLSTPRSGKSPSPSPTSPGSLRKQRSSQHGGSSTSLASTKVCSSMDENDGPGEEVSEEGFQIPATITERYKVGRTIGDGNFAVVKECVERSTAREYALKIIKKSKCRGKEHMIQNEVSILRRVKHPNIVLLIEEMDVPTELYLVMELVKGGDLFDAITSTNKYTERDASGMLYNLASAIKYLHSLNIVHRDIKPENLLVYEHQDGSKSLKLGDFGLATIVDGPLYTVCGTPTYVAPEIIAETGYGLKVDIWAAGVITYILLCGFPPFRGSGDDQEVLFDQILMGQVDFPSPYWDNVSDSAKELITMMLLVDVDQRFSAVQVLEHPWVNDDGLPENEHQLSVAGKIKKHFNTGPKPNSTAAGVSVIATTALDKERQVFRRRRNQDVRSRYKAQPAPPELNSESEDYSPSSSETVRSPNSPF
# EGFR(G719S) = target: T9, EGFR(G719S) (Homo sapiens, UniProt P00533, G719S); assay: KINOMEScan; assay type: binding; parameters: dose or concentration left out as unconfirmed
# T9 construct: purchased DiscoverX KINOMEscan
# EGFR(L858R,T790M) = target: T10, EGFR(L858R,T790M) (Homo sapiens, UniProt P00533, L858R/T790M); assay: KINOMEScan; assay type: binding
# T10 construct: purchased DiscoverX KINOMEscan
# EGFR(L861Q) = target: T11, EGFR(L861Q) (Homo sapiens, UniProt P00533, L861Q); assay: KINOMEScan; assay type: binding; parameters: dose or concentration left out as unconfirmed
# T11 construct: purchased DiscoverX KINOMEscan
# EPHB2 = target: T12, EPHB2 (Homo sapiens, UniProt P29323); assay: KINOMEScan; assay type: binding; parameters: dose or concentration left out as unconfirmed
# T12 construct: purchased DiscoverX KINOMEscan
# T12 sequence (P29323 19-1055): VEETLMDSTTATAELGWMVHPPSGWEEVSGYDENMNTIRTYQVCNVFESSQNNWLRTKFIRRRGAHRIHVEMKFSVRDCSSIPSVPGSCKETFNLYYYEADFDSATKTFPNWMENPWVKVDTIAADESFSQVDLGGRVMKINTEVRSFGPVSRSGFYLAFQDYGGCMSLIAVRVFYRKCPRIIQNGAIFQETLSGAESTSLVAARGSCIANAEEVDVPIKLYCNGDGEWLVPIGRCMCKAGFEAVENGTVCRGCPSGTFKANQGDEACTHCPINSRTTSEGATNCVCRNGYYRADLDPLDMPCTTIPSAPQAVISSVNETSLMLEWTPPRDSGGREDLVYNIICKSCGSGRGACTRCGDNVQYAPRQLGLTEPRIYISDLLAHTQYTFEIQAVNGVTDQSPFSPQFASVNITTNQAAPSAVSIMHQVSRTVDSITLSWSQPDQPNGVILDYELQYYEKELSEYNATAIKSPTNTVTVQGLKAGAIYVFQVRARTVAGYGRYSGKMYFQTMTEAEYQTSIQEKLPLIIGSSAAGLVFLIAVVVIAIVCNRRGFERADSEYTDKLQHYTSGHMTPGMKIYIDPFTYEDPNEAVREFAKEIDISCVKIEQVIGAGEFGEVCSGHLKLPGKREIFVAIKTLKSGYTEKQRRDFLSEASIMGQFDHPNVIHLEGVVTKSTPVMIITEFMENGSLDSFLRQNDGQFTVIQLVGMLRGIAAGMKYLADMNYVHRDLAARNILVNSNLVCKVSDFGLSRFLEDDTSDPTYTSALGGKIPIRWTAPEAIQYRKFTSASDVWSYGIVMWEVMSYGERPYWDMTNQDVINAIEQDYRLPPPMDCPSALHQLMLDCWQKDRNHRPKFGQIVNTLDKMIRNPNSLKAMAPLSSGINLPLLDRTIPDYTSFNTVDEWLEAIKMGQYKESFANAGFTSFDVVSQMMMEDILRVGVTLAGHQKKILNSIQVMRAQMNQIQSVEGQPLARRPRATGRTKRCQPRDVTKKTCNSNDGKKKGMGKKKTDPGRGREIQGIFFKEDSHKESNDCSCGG
# ITK = target: T13, ITK (Homo sapiens, UniProt Q08881); assay: KINOMEScan; assay type: binding; parameters: dose or concentration left out as unconfirmed
# T13 construct: purchased DiscoverX KINOMEscan
# T13 sequence (Q08881 whole entry): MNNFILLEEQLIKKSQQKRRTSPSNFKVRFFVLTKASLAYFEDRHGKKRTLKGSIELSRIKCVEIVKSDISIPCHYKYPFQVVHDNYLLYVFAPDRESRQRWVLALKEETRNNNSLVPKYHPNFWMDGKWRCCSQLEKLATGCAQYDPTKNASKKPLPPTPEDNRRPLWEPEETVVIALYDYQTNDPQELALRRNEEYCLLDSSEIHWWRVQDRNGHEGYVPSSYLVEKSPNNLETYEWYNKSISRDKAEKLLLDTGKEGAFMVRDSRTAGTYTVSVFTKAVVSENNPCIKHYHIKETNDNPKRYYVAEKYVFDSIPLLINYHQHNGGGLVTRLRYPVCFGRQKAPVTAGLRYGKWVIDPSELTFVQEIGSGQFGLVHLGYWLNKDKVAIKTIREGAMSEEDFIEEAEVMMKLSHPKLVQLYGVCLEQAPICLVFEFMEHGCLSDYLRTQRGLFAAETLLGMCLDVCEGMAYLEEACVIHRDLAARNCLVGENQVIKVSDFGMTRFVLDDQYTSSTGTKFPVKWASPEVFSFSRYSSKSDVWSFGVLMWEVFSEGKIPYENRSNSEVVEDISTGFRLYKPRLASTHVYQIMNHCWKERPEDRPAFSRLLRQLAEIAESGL
# [1] = target: T14, JAK1(JH1domain-catalytic) (Homo sapiens, UniProt P23458); assay: KINOMEScan; assay type: binding; parameters: dose or concentration left out as unconfirmed
# T14 construct: JAK1(JH1domain-catalytic); purchased DiscoverX KINOMEscan
# MAP4K3 = target: T15, MAP4K3 (Homo sapiens, UniProt Q8IVH8); assay: KINOMEScan; assay type: binding; parameters: dose or concentration left out as unconfirmed
# T15 construct: purchased DiscoverX KINOMEscan
# MET(Y1235D) = target: T16, MET(Y1235D) (Homo sapiens, UniProt P08581, Y1235D); assay: KINOMEScan; assay type: binding; parameters: dose or concentration left out as unconfirmed
# T16 construct: purchased DiscoverX KINOMEscan
# MKK7 = target: T17, MKK7 (Homo sapiens, UniProt O14733); assay: KINOMEScan; assay type: binding; parameters: dose or concentration left out as unconfirmed
# T17 construct: purchased DiscoverX KINOMEscan
# PFTK1 = target: T18, PFTK1 (Homo sapiens, UniProt O94921); assay: KINOMEScan; assay type: binding; parameters: dose or concentration left out as unconfirmed
# T18 construct: purchased DiscoverX KINOMEscan
# [2] = target: T19, RSK4(Kin.Dom.1-N-terminal) (Homo sapiens, UniProt Q9UK32); assay: KINOMEScan; assay type: binding
# T19 construct: RSK4(Kin.Dom.1-N-terminal); purchased DiscoverX KINOMEscan
# [3] = target: T20, RSK4(Kin.Dom.2-C-terminal) (Homo sapiens, UniProt Q9UK32); assay: KINOMEScan; assay type: binding
# T20 construct: RSK4(Kin.Dom.2-C-terminal); purchased DiscoverX KINOMEscan
# T20 sequence (Q9UK32 426-683 limits assumed): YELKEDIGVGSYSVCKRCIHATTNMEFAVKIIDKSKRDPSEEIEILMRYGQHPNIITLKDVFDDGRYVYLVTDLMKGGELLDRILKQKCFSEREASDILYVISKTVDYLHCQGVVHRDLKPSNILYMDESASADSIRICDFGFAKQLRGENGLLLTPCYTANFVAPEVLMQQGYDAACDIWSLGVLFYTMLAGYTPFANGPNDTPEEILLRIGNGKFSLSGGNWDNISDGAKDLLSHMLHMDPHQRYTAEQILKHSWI
# [4] = target: T21, TYK2(JH1domain-catalytic) (Homo sapiens, UniProt P29597); assay: KINOMEScan; assay type: binding; parameters: dose or concentration left out as unconfirmed
# T21 construct: TYK2(JH1domain-catalytic); purchased DiscoverX KINOMEscan
# KIT V559D = KIT V559D (Homo sapiens, UniProt P10721, V559D); assay: KIT auto-phosphorylation in transformed BaF3 cells; details: 2h
# KIT V559D, sequence (P10721 546-976 V559D): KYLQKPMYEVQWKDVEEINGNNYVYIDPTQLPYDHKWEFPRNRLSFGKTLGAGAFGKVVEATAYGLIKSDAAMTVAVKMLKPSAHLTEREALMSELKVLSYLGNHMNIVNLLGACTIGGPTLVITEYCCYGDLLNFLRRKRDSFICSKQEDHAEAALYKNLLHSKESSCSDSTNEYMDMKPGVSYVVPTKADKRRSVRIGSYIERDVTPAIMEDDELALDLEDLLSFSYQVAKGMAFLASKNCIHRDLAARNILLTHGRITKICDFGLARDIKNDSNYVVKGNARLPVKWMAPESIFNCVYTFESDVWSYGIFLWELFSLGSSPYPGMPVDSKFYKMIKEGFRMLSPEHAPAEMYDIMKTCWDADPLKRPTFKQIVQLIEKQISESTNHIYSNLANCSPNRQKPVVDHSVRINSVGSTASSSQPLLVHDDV
# KIT V654A = KIT V654A (Homo sapiens, UniProt P10721, V654A); assay: KIT auto-phosphorylation in transformed BaF3 cells; details: 2h
# KIT V654A, sequence (P10721 546-976 V654A): as the sequence (P10721 546-976 V559D) above, with D14V, V109A counted along it
# [5] = EC50 pY703 auto-phosphorylation
# [6] = EC50 pY719 auto-phosphorylation
# [7] = EC50 pY823 auto-phosphorylation
# KIT wt, sequence (P10721 546-937 limits assumed): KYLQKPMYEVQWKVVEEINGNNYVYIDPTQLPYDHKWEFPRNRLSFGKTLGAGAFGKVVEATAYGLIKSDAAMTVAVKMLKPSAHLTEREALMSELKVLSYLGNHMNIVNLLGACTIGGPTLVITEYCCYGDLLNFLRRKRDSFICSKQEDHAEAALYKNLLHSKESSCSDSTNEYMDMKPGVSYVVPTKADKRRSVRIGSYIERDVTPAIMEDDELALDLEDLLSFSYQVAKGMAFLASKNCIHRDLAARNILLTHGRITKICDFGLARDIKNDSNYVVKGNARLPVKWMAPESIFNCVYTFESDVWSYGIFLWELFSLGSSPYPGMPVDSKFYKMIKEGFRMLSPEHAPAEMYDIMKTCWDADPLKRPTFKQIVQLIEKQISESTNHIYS
structure (smiles),measurement,setting,value
COc1cc(C(=O)NCC(=O)Nc2ccc3c(/C=C/c4ccccn4)n[nH]c3c2)cc(OC)c1OC [CHMFL-KIT-031],EC50,KIT wt; read-out: EC50 pY703 auto-phosphorylation,1900 nM
same,EC50,KIT wt; read-out: EC50 pY719 auto-phosphorylation,8200 nM
same,EC50,KIT wt; read-out: EC50 pY823 auto-phosphorylation,6900 nM
same,KINOMEScan profiling value,BMPR2,100
same,KINOMEScan profiling value,CAMK1B,83
same,KINOMEScan profiling value,CDK11,59
same,KINOMEScan profiling value,CDK8,100
same,KINOMEScan profiling value,CHEK1,97
same,KINOMEScan profiling value,CSK,87
same,KINOMEScan profiling value,CSNK1G2,100
same,KINOMEScan profiling value,DCAMKL1,100
same,KINOMEScan profiling value,EGFR(G719S),95
same,KINOMEScan profiling value,"EGFR(L858R,T790M)",75
same,KINOMEScan profiling value,EGFR(L861Q),100
same,KINOMEScan profiling value,EPHB2,87
same,KINOMEScan profiling value,ITK,96
same,KINOMEScan profiling value,[1],87
same,KINOMEScan profiling value,MAP4K3,100
same,KINOMEScan profiling value,MET(Y1235D),100
same,KINOMEScan profiling value,MKK7,100
same,KINOMEScan profiling value,PFTK1,100
same,KINOMEScan profiling value,[2],97
same,KINOMEScan profiling value,[3],100
same,KINOMEScan profiling value,[4],100
same,EC50,KIT V559D; [5],151 nM
same,EC50,KIT V559D; [6],137 nM
same,EC50,KIT V559D; [7],118 nM
same,EC50,KIT V654A; [5],508 nM
same,EC50,KIT V654A; [6],2200 nM
same,EC50,KIT V654A; [7],4600 nM
